Results from patent publication EP0341661A2, “Peptide-drug compositions containing alpha-aminoboronic acid derivatives” (THE DU PONT MERCK PHARMACEUTICAL COMPANY, priority 1988, dated 1989).
Structures can show the parent of a compound that is named as a salt.

Assays:
aminopeptidases [1] = assay: In situ nasal perfusion: degradation of 100 µM leucine enkephalin in the nasal perfusate; type: in vivo, Sprague-Dawley rats; conditions: 0.01 µM Boroleucine (title: 0.1 µM), 60 min
aminopeptidases [2] = assay: In situ nasal perfusion: disappearance of 35 µM LH-RH (fragment 3-10) in the nasal perfusate; type: in vivo, Sprague-Dawley rats; conditions: 0.465 µM Boroleucine
Procedure: The method involved the use of Sprague-Dawley rats weighing approximately 300 grams. Each rat was anesthetized with sodium pentobarbitol (50 mg/kg). An incision was made in the neck and the trachea was canulated with PE 240 tubing. For the in situ studies, a second tube, which served to introduce the perfusing solution, was inserted through the esophagus to the posterior part of the nasal cavity. The nasopalatine was closed with an adhesive to prevent drainage of the perfusing solution from the nasal to the oral cavity. For the in vivo in situ studies, the esophagus was canulated using PE 240 tubing closed at one end. The closed end was pushed to the posterior end of the nasal passage and then tied in place. The nasopalatine was closed with an adhesive to prevent drainage of the perfusing solution from the nasal to the oral cavity. The rats were dosed in one nostril with 50 µl of peptide solution in two forms; the control solution had no inhibitor added, the test solution had inhibitor added at concentrations specified in the examples shown below. The dosing solution was 0.1 M phosphate buffer (pH 7.4). At certain time intervals (one rat/time interval), the drug was washed from the nose via the other nostril with 10 ml of 0.1 M phosphate buffer (pH 3.8) using a peristaltic pump. The nasal washing was then placed in a 10 ml volumetric flask and adjusted to 10 ml with the same buffer and analyzed for the peptide by HPLC.
The analysis of leucine enkephalin and its major metabolite involved taking aliquots of samples, diluting them with 200 µl of 0.1 M citric acid (pH 2.3) to quench hydrolysis and subjecting the samples to analysis (for in vivo in situ studies, the washings were injected as they were obtained). High Pressure Liquid Chromatography (HPLC) was run on a 4.6 x 250 mm C₈ column. The mobile phase consisted of 0.1 M NaH₂PO₄-H₃PO₄-acetonitrile (916 : 5 : 275) and was delivered at a flow rate of 1.7 ml/min. Detection was by UV at 210 nm. Retention times for leucine enkephalin and its major degradation product, Des-Tyr-leucine enkephalin were 7.3 and 4.8 min., respectively. Data were calculated as % of leucine enkephalin remaining in the nasal perfusate as a function of time, counting the concentration at zero time as 100%.
A 10 ml portion of the peptide solution was placed in a water-jacketed container, maintained at 37°C and circulated through the nasal cavity of rats using a peristaltic pump. The perfusing solution was passed through the nasal cavity, out the nostrils, through a funnel, and returned to the water-jacketed container. The perfusate was analyzed by the ANALYTICAL METHOD described above.
In this example, a 0.1 M phosphate buffer solution (pH 7.4) containing 35 µM LH-RH (fragment 3-10) in the absence of inhibitor and in the presence of the inhibitor, boroleucine at a concentration of 0.46 µM was administered to rats as described in Example 1. The perfusate was analyzed by HPLC as described in Example 1 with the exception of the mobile phase used. The mobile phase was comprised of 0.1 M NaH₂PO₄:H₃PO₄:CH₃CN(916:5:240) delivered at 1.7 ml/min and analyzed by UV at 210 nm.

## CC(C)CC(N)B1OC(C)(C)C(C)(C)O1 (centres unmarked) [boroleucine, 3-methyl-1(4,4,5,5-tetramethyl-1,3,2-dioxaborolane-2-yl)-1-butamine, trifluoroacetic acid salt]
Aminopeptidases [1]
  % of leucine enkephalin remaining in the nasal perfusate: 88.8±2.6%
Aminopeptidases [2]; 0 min
  LH-RH (fragment 3-10) remaining in the nasal perfusate: 100.0%
Aminopeptidases [2]; 5 min
  LH-RH (fragment 3-10) remaining in the nasal perfusate: 96.7%
Aminopeptidases [2]; 10 min
  LH-RH (fragment 3-10) remaining in the nasal perfusate: 97.5%
Aminopeptidases [2]; 20 min
  LH-RH (fragment 3-10) remaining in the nasal perfusate: 95.5%
Aminopeptidases [2]; 30 min
  LH-RH (fragment 3-10) remaining in the nasal perfusate: 96.5%
Aminopeptidases [2]; 45 min
  LH-RH (fragment 3-10) remaining in the nasal perfusate: 95.8%
Aminopeptidases [2]; 60 min
  LH-RH (fragment 3-10) remaining in the nasal perfusate: 91.9%
Aminopeptidases [2]; 90 min
  LH-RH (fragment 3-10) remaining in the nasal perfusate: 92.9%
Aminopeptidases [2]; 120 min, listed as Boroleucine, trifluoroacetic acid salt
  LH-RH (fragment 3-10) remaining in the nasal perfusate: 86.4%
Aminopeptidases [2]; 120 min, trifluoroacetic acid salt
  LH-RH (fragment 3-10) remaining in the nasal perfusate: about 86%
